Tests used:
[1] = Drug level in stool of patient with traveler's diarrhea at 800 mg, po administered daily for 3 days; assay type: ADME, organism-based; settings: human, in vivo, 72 h
Eubacterium saburreum = test: Antimicrobial activity against Eubacterium saburreum by Wadsworth agar dilution method in presence of beta-lactamase inhibitor Sulbactam; assay type: functional; settings: Lachnoanaerobaculum saburreum
Clostridium cadaveris = test: Antimicrobial activity against Clostridium cadaveris by Wadsworth agar dilution method in presence of beta-lactamase inhibitor Sulbactam; assay type: functional
Clostridium spiroforme = test: Antimicrobial activity against Clostridium spiroforme by Wadsworth agar dilution method in presence of beta-lactamase inhibitor Sulbactam; assay type: functional; settings: Thomasclavelia spiroformis
Thomasclavelia ramosa = test: Antimicrobial activity against Clostridium ramosum by Wadsworth agar dilution method in presence of beta-lactamase inhibitor Sulbactam; assay type: functional
[2] = system: Parabacteroides distasonis; test: Antimicrobial activity against Parabacteroides distasonis by Wadsworth agar dilution method in presence of beta-lactamase inhibitor Sulbactam; assay type: functional
Lactobacillus sp. = test: Antimicrobial activity against Lactobacillus sp. by Wadsworth agar dilution method in presence of beta-lactamase inhibitor Sulbactam; assay type: functional
Porphyromonas somerae = test: Antimicrobial activity against Porphyromonas somerae by Wadsworth agar dilution method in presence of beta-lactamase inhibitor Sulbactam; assay type: functional
Prevotella bivia = test: Antimicrobial activity against Prevotella bivia by Wadsworth agar dilution method in presence of beta-lactamase inhibitor Sulbactam; assay type: functional
[3] = Antimicrobial activity against Bifidobacterium infantis by Wadsworth agar dilution method in presence of beta-lactamase inhibitor Sulbactam; assay type: functional, Bifidobacterium longum subsp. infantis; settings: Bifidobacterium longum
[4] = system: Desulfovibrio fairfieldensis; test: Antimicrobial activity against Desulfovibrio fairfieldensis by Wadsworth agar dilution method in presence of beta-lactamase inhibitor Sulbactam; assay type: functional
Ruminococcus torques = test: Antimicrobial activity against Ruminococcus torques by Wadsworth agar dilution method in presence of beta-lactamase inhibitor Sulbactam; assay type: functional; settings: Mediterraneibacter torques
Clostridium sporogenes = test: Antimicrobial activity against Clostridium sporogenes by Wadsworth agar dilution method in presence of beta-lactamase inhibitor Sulbactam; assay type: functional
Fusobacterium mortiferum [5] = test: Antimicrobial activity against Fusobacterium mortiferum by Wadsworth agar dilution method; assay type: functional
Collinsella aerofaciens = test: Antimicrobial activity against Colinsella aerofaciens by Wadsworth agar dilution method in presence of beta-lactamase inhibitor Sulbactam; assay type: functional
Clostridium glycolicum = test: Antimicrobial activity against Clostridium glycolicum by Wadsworth agar dilution method in presence of beta-lactamase inhibitor Sulbactam; assay type: functional; settings: Terrisporobacter glycolicus
Desulfovibrio piger = test: Antimicrobial activity against Desulfovibrio piger by Wadsworth agar dilution method in presence of beta-lactamase inhibitor Sulbactam; assay type: functional
Clostridium leptum = test: Antimicrobial activity against Clostridium leptum by Wadsworth agar dilution method in presence of beta-lactamase inhibitor Sulbactam; assay type: functional
Clostridium cocleatum = test: Antimicrobial activity against Clostridium cocleatum by Wadsworth agar dilution method in presence of beta-lactamase inhibitor Sulbactam; assay type: functional; settings: Thomasclavelia cocleata
Prevotella corporis = test: Antimicrobial activity against Prevotella corporis by Wadsworth agar dilution method in presence of beta-lactamase inhibitor Sulbactam; assay type: functional
Fusobacterium mortiferum [6] = test: Antimicrobial activity against Clostridium rectum by Wadsworth agar dilution method in presence of beta-lactamase inhibitor Sulbactam; assay type: functional
Clostridium tertium = test: Antimicrobial activity against Clostridium tertium by Wadsworth agar dilution method in presence of beta-lactamase inhibitor Sulbactam; assay type: functional
[7] = system: Paeniclostridium sordellii; test: Antimicrobial activity against Clostridium sordellii by Wadsworth agar dilution method in presence of beta-lactamase inhibitor Sulbactam; assay type: functional; settings: Paraclostridium sordellii
[8] = system: Desulfovibrio desulfuricans; test: Antimicrobial activity against Desulfovibrio desulfuricans by Wadsworth agar dilution method in presence of beta-lactamase inhibitor Sulbactam; assay type: functional
Clostridioides difficile = test: Antimicrobial activity against Clostridium difficile by Wadsworth agar dilution method in presence of beta-lactamase inhibitor Sulbactam; assay type: functional
Parvimonas micra = test: Antimicrobial activity against Peptostreptococcus micros by Wadsworth agar dilution method in presence of beta-lactamase inhibitor Sulbactam; assay type: functional
Clostridium butyricum = test: Antimicrobial activity against Clostridium butyricum by Wadsworth agar dilution method in presence of beta-lactamase inhibitor Sulbactam; assay type: functional

CO[C@H]1/C=C/O[C@@]2(C)Oc3c(C)c(O)c4c(O)c(c5c(nc6cc(C)ccn65)c4c3C2=O)NC(=O)/C(C)=C\C=C\[C@H](C)[C@H](O)[C@@H](C)[C@@H](O)[C@@H](C)[C@H](OC(C)=O)[C@@H]1C [RIFAXIMIN]
8000 µg/g: concentration [1]

CC1(C)S[C@@H]2[C@H](NC(=O)[C@H](N)c3ccccc3)C(=O)N2[C@H]1C(=O)O [AMPICILLIN]
2 µg/mL: MIC90 (Eubacterium saburreum) | MIC90 (Lactobacillus sp.) | MIC90 [3] | MIC90 (Ruminococcus torques) | MIC90 (Collinsella aerofaciens) | MIC50 (Clostridioides difficile) | MIC90 (Parvimonas micra)
0.5 µg/mL: MIC90 (Porphyromonas somerae) | MIC50 (Prevotella bivia) | MIC50 (Prevotella corporis)
8 µg/mL: MIC50 [8] | MIC90 [8]
4 µg/mL: MIC90 (Prevotella bivia) | MIC50 [4] | MIC90 (Fusobacterium mortiferum [5]) | MIC50 (Desulfovibrio piger) | MIC90 (Prevotella corporis) | MIC90 (Clostridioides difficile)
32 µg/mL: MIC90 [2] | MIC90 [4] | MIC90 (Desulfovibrio piger)
0.25 µg/mL: MIC (Eubacterium saburreum) | MIC50 (Eubacterium saburreum) | MIC (Clostridium cadaveris) | MIC50 (Clostridium cadaveris) | MIC (Clostridium spiroforme) | MIC50 (Clostridium spiroforme) | MIC (Thomasclavelia ramosa) | MIC50 (Thomasclavelia ramosa) | MIC (Lactobacillus sp.) | MIC50 (Lactobacillus sp.) | MIC (Porphyromonas somerae) | MIC50 (Porphyromonas somerae) | MIC [3] | MIC50 [3] | MIC (Ruminococcus torques) | MIC50 (Ruminococcus torques) | MIC (Clostridium sporogenes) | MIC50 (Clostridium sporogenes) | MIC (Collinsella aerofaciens) | MIC50 (Collinsella aerofaciens) | MIC (Clostridium glycolicum) | MIC50 (Clostridium glycolicum) | MIC (Clostridium leptum) | MIC50 (Clostridium leptum) | MIC (Clostridium cocleatum) | MIC50 (Clostridium cocleatum) | MIC (Fusobacterium mortiferum [6]) | MIC50 (Fusobacterium mortiferum [6]) | MIC (Clostridium tertium) | MIC50 (Clostridium tertium) | MIC [7] | MIC50 [7] | MIC (Parvimonas micra) | MIC50 (Parvimonas micra) | MIC (Clostridium butyricum) | MIC50 (Clostridium butyricum)
16 µg/mL: MIC50 [2]
1 µg/mL: MIC90 (Clostridium cadaveris) | MIC90 (Clostridium spiroforme) | MIC90 (Thomasclavelia ramosa) | MIC90 (Clostridium sporogenes) | MIC50 (Fusobacterium mortiferum [5]) | MIC90 (Clostridium glycolicum) | MIC90 (Clostridium leptum) | MIC90 (Clostridium cocleatum) | MIC90 (Fusobacterium mortiferum [6]) | MIC90 (Clostridium tertium) | MIC90 [7] | MIC90 (Clostridium butyricum)

Reference: ChEMBL document CHEMBL1275577, “Study of the in vitro activities of rifaximin and comparator agents against 536 anaerobic intestinal bacteria from the perspective of potential utility in pathology involving bowel flora” (Antimicrob Agents Chemother, 2009)
